Measured values from patent US8017162B2, “Anti-inflammatory agent” (Oryza Oil & Fat Chemical Co., Ltd., priority 2005, dated 2011).
Several values for one entry are separate records, joined by “and”; a condition that tells them apart may be missing. Identical values can stand only once. Entries after “also recorded” stand apart in the source; their conditions may differ.

Key:
RAW264.7 cells = test: NO production inhibition test (LPS, Griess Method); assay type: cell-based, mouse
Procedure: A 200 microliter each of the continuously-cultivated RAW264.7 cells (10^6 cells/mL) should be seeded into 48-well plate. After 24 hours, replace the culture medium with a serum-free culture medium. Then, add the LPS (final concentration: 10 microgram/mL) and samples (Examples 1 & 2), and then cultivate for 24 hours. Collect the supernatant (100 microliter) and determine the amount of NO by the Griess Method.

adjuvant arthritis [1] = test: Preventive effect on adjuvant arthritis: edema volume of the tarsus (footpad volume); assay type: in vivo, rats
Text: Firstly, subcutaneously administer the adjuvant to the right tarsus of the rats under the following condition so that the arthritis is caused in the mice. On the second day that the arthritis is induced, orally administer the red ginger extract to the rats for four consecutive weeks by the following method, and regularly observe the tarsus edema of the rats and the anti-inflammatory effect of the test substance. Weigh at once the two-day doses of the red ginger extract as the test substance described in Example 1, and use the red ginger extract suspended with the 0.5% CMC-Na. At this time, prepare the high-dose test substance (10 mg/5 mL/kg). Then, […] the liquid to prepare the low-dose test substance (1 mg/5 mL/kg). Weigh the necessary amount of Indomethacin (Lot No. 122K0718, Sigma-Aldrich, Inc.) which is commercially available. Then prepare freshly the positive control substance with the injection solvent until it becomes 0.5 mg/5 mL/kg. Then, dispose of it after all the administrations have been completed. 2. Firstly, obtain 28 mice (7-week-old, SD (CrjBgi:CD) IGS mice, male SPF) from ORIENT CO., LTD. Then, quarantine and naturalize the mice for more than 7 days. After observing the mice during the period of naturalization and quarantine, use the mice that are alive and which have no problems in the weight and general status. When the mice were grouped, the weight ranged from 279.3 to 328.7 g. When the inflammation was induced, the weight ranged from 283.7 to 333.9 g. When the autopsy was conducted, the weight ranged from 293.4 g to 440.8 g. 3. Administration The test substance was forcibly administered to the mice through a stomach sonde or syringe once a day for a period of 28 days after the inflammation was induced. As shown in the chart below, there are 4 groups, and each group has seven examples (i.e. 7 mice). The test substance was orally administered to each mouse for 28 days from the day after the inflammation was induced. During the period when the test substance was administered, the edema of the right tarsus of each mouse was X-rayed twice a week. From the day after the test was completed, the right and left tarsuses of each mouse were X-rayed twice a week, and the effect of the test substance on the bone was verified. The solution (1.0 mg/0.1 mL) was made from 1 mL of FREUND'S INCOMPLETE ADJUTANT (FIA) and 10 mg of killed bacteria (fungus body)—MYCOBACTERIUM BUTYRICUM (Lot Ni. 5129117, Difco). The FIA and the killed bacteria were sufficiently suspended, and then approx. […] of the solution was administered to the subcutaneous of the footpads of the right, hind leg of each mouse. To verify the degree and the increase of the edema volume before and after the adjuvant was induced, the footpad volume of the right hind leg was measured by using Digital Pletysmometer, LE7500 (Panlab SL, Spain) twice each time immediately before the adjuvant was induced, and again on Days 3, 6, 10, 13, 17, 20, 24 and 27 after the adjuvant was induced. Each measured value was determined by Dunnet's Test using the Graphad Instat Program (Ver. 4.5, USA), and the significant difference test was conducted.

adjuvant arthritis [2] = test: Adjuvant arthritis: X-ray determination of tarsus and interphalangeal articulation (radiographic index); assay type: in vivo, rats; conditions: 0.5 mg/kg
Text: Firstly, subcutaneously administer the adjuvant to the right tarsus of the rats under the following condition so that the arthritis is caused in the mice. On the second day that the arthritis is induced, orally administer the red ginger extract to the rats for four consecutive weeks by the following method, and regularly observe the tarsus edema of the rats and the anti-inflammatory effect of the test substance. 2. Firstly, obtain 28 mice (7-week-old, SD (CrjBgi:CD) IGS mice, male SPF) from ORIENT CO., LTD. Then, quarantine and naturalize the mice for more than 7 days. After observing the mice during the period of naturalization and quarantine, use the mice that are alive and which have no problems in the weight and general status. When the mice were grouped, the weight ranged from 279.3 to 328.7 g. When the inflammation was induced, the weight ranged from 283.7 to 333.9 g. When the autopsy was conducted, the weight ranged from 293.4 g to 440.8 g. 3. Administration The test substance was forcibly administered to the mice through a stomach sonde or syringe once a day for a period of 28 days after the inflammation was induced. As shown in the chart below, there are 4 groups, and each group has seven examples (i.e. 7 mice). The test substance was orally administered to each mouse for 28 days from the day after the inflammation was induced. During the period when the test substance was administered, the edema of the right tarsus of each mouse was X-rayed twice a week. From the day after the test was completed, the right and left tarsuses of each mouse were X-rayed twice a week, and the effect of the test substance on the bone was verified. The solution (1.0 mg/0.1 mL) was made from 1 mL of FREUND'S INCOMPLETE ADJUTANT (FIA) and 10 mg of killed bacteria (fungus body)—MYCOBACTERIUM BUTYRICUM (Lot Ni. 5129117, Difco). The FIA and the killed bacteria were sufficiently suspended, and then approx. […] of the solution was administered to the subcutaneous of the footpads of the right, hind leg of each mouse. On the 27th day after the administration was begun, the edema was taken out. The hind leg was affixed with the neutral buffered formalin fixative (10%), and the image of the tarsus articulation area, including the interphalangeal articulation, was taken by a soft X-ray. The tarsus articulation and the interphalangeal articulation were verified by the degrees between −(normal status) and 5+(most serious status). A radiographic index was obtained by the method as shown in Chart 2, below. Add up the figures to determine the severity of the articular destruction. [table]

[3] = 1 μg/mL, LPS 10 microgram/mL, 24 hours, average ± SD
[4] = right leg, individual animals, listed as Indomet hacin
[5] = right leg, individual animals, listed as indomethacin

Work on `CCC[C@H](O)CC(=O)CCc1ccc(O)c(OC)c1` [Example 4-gingerol, 4-gingerol] yielded an NO in supernatant (RAW264.7 cells; [3]) of 4.98 ± 0.22 µM, an NO in supernatant (RAW264.7 cells; 3 μg/mL) of 5.10 ± 0.24 µM and an NO in supernatant (RAW264.7 cells; 10 μg/mL) of 4.98 ± 0.22 µM. For the same molecule, the NO in supernatant (RAW264.7 cells; 30 μg/mL) was 5.03 ± 0.45 µM and the NO in supernatant (RAW264.7 cells; 100 μg/mL) was 4.98 ± 0.26 µM.

`CCCCC/C=C/C(=O)CCc1ccc(O)c(OC)c1` [Example 6-shogaol, 6-shogaol] was tested, and the NO in supernatant (RAW264.7 cells; [3]) was 3.81 ± 0.29 µM, the NO in supernatant (RAW264.7 cells; 3 μg/mL) was 3.60 ± 0.29 µM and the “Inhibition ratio (NO production)” value (RAW264.7 cells; 10 μg/mL) was “(13.6) %”. The NO in supernatant (RAW264.7 cells; 10 μg/mL) was 3.21 ± 0.31 µM, the “Inhibition ratio (NO production)” value (RAW264.7 cells; 30 μg/mL) was “(29.8) %” and the NO in supernatant (RAW264.7 cells; 30 μg/mL) was 2.79 ± 0.09 µM. For the same molecule, the “Inhibition ratio (NO production)” value (RAW264.7 cells; 100 μg/mL) was “(90.7) %”, the NO in supernatant (RAW264.7 cells; 100 μg/mL) was 1.22 ± 0.04 µM and the “Effect on NO production among the ingredients” value (RAW264.7 cells; compared with the other components) was “comparatively strong effect”.

`CCCCCCC[C@H](O)CC(=O)CCc1ccc(O)c(OC)c1` [Example 8-gingerol, 8-gingerol] was tested, and the “Inhibition ratio (NO production)” value (RAW264.7 cells; 1 μg/mL) was “(4.7) %”, the NO in supernatant (RAW264.7 cells; [3]) was 4.17 ± 0.27 µM and the “Inhibition ratio (NO production)” value (RAW264.7 cells; 3 μg/mL) was “(7.7) %”. The NO in supernatant (RAW264.7 cells; 3 μg/mL) was 4.06 ± 0.24 µM, the “Inhibition ratio (NO production)” value (RAW264.7 cells; 10 μg/mL) was “(13.3) %” and the NO in supernatant (RAW264.7 cells; 10 μg/mL) was 3.86 ± 0.32 µM. The “Inhibition ratio (NO production)” value (RAW264.7 cells; 30 μg/mL) was “(20.7) %”, the NO in supernatant (RAW264.7 cells; 30 μg/mL) was 3.59 ± 0.21 µM and the “Inhibition ratio (NO production)” value (RAW264.7 cells; 100 μg/mL) was “(31.5) %”. It also gave an NO in supernatant (RAW264.7 cells; 100 μg/mL) of 3.20 ± 0.17 µM.

`COc1ccc2c(c1)c(CC(=O)O)c(C)n2C(=O)c1ccc(Cl)cc1` [Indomethacin] was tested, and the “Edema volume of the tarsus, right tarsus” value (adjuvant arthritis [1]; 0.5 mg/kg oral once a day, Day 0 (before induction)) was 1.81 ± 0.07 mL, the “Edema volume of the tarsus, right tarsus” value (adjuvant arthritis [1]; 0.5 mg/kg, Day 3) was 3.35 ± 0.18 mL and the “Edema volume of the tarsus, right tarsus” value (adjuvant arthritis [1]; 0.5 mg/kg, Day 3, listed as indomethacin) was 3.35 mL. For the same molecule, the “Edema volume of the tarsus, right tarsus” value (adjuvant arthritis [1]; 0.5 mg/kg, Day 6) was 3.69 ± 0.40 mL, the “Edema volume of the tarsus, right tarsus” value (adjuvant arthritis [1]; 0.5 mg/kg, Day 10) was 3.69 ± 0.36 mL and the “Edema volume of the tarsus, right tarsus” value (adjuvant arthritis [1]; 0.5 mg/kg, Day 13) was 3.40 ± 0.43 mL. The “Edema volume of the tarsus, right tarsus” value (adjuvant arthritis [1]; 0.5 mg/kg, Day 17) was 3.11 ± 0.59 mL, the “Edema volume of the tarsus, right tarsus” value (adjuvant arthritis [1]; 0.5 mg/kg, Day 20) was 3.18 ± 0.52 mL and the “Edema volume of the tarsus, right tarsus” value (adjuvant arthritis [1]; 0.5 mg/kg, Day 24) was 3.19 ± 0.51 mL. For the same molecule, the “Edema volume of the tarsus, right tarsus” value (adjuvant arthritis [1]; 0.5 mg/kg, Day 24, listed as indomethacin) was 3.19 mL, the “Edema volume of the tarsus, right tarsus” value (adjuvant arthritis [1]; 0.5 mg/kg, Day 27) was 2.89 ± 0.34 mL and the “Degree of disorder compared to the vehicle group” value (adjuvant arthritis [2]) was “remarkably suppressed”. The “Result (X-ray determination)” value (adjuvant arthritis [2]; right leg, individual animals) was 2+ (Moderate(−): 2+; 2points), the “Interphal angeal articulation: Bone destruction” value (adjuvant arthritis [2]; [4]) was “− (Normal: −; 0 point); also recorded: + (Mild: +; 1 point)” and the “Interphal angeal articulation: Periostitis” value (adjuvant arthritis [2]; [4]) was “+ (Mild: +; 1 point); also recorded: − (Normal: −; 0 point)”. For the same molecule, the “Interphal angeal articulation: Total” value (adjuvant arthritis [2]; [4]) was 1 points (5×) and 0 points and 2 points, the “Tarsus articulation: Bone destruction” value (adjuvant arthritis [2]; [4]) was “− (Normal: −; 0 point); also recorded: + (Mild: +; 1 point)” and the “Tarsus articulation: Periostitis” value (adjuvant arthritis [2]; [4]) was 2+ (Moderate(−): 2+; 2points) (6×) and 3+ (Moderate(+): 3+; 3 ponts). For the same molecule, the “Tarsus articulation: Total” value (adjuvant arthritis [2]; [4]) was 2 points (2×) and 3 points (4×) and 4 points, the “Interphal angeal articulation: Bone destruction” value (adjuvant arthritis [2]; [5]) was “+ (Mild: +; 1 point)” and the “Interphal angeal articulation: Periostitis” value (adjuvant arthritis [2]; [5]) was “+ (Mild: +; 1 point)”. The “Tarsus articulation: Bone destruction” value (adjuvant arthritis [2]; [5]) was “+ (Mild: +; 1 point)”.

With `CCCCCCCCC/C=C/C(=O)CCc1ccc(O)c(OC)c1` [Example 10-shogaol, 10-shogaol] the “Inhibition ratio (NO production)” value (RAW264.7 cells; 1 μg/mL) was “(23.4) %”, the NO in supernatant (RAW264.7 cells; [3]) was 2.78 ± 0.10 µM and the “Inhibition ratio (NO production)” value (RAW264.7 cells; 3 μg/mL) was “(18.5) %”. The NO in supernatant (RAW264.7 cells; 3 μg/mL) was 2.88 ± 0.11 µM, the “Inhibition ratio (NO production)” value (RAW264.7 cells; 10 μg/mL) was “(24.4) %” and the NO in supernatant (RAW264.7 cells; 10 μg/mL) was 2.76 ± 0.10 µM. For the same molecule, the “Inhibition ratio (NO production)” value (RAW264.7 cells; 30 μg/mL) was “(28.3) %”, the NO in supernatant (RAW264.7 cells; 30 μg/mL) was 2.68 ± 0.70 µM and the “Inhibition ratio (NO production)” value (RAW264.7 cells; 100 μg/mL) was “(31.2) %”. For the same molecule, the NO in supernatant (RAW264.7 cells; 100 μg/mL) was 2.62 ± 0.71 µM.

In the case of `CCCCCCCCC[C@H](O)CC(=O)CCc1ccc(O)c(OC)c1` [Example 10-gingerol, 10-gingerol], the NO in supernatant (RAW264.7 cells; [3]) is reported as 4.44 ± 0.27 µM, the NO in supernatant (RAW264.7 cells; 3 μg/mL) is reported as 4.32 ± 0.16 µM and the NO in supernatant (RAW264.7 cells; 10 μg/mL) is reported as 4.33 ± 0.50 µM. For the same molecule, the NO in supernatant (RAW264.7 cells; 30 μg/mL) was 4.28 ± 0.72 µM, the “Inhibition ratio (NO production)” value (RAW264.7 cells; 100 μg/mL) was “(21.1) %” and the NO in supernatant (RAW264.7 cells; 100 μg/mL) was 3.55 ± 0.08 µM.
